Drawing on US5424293A (Cassella AG, priority 1992, dated 1995), this text covers Ki and IC50 for 2 compounds.

By Ki is commonly meant a dissociation constant, usually derived from enzyme kinetics or from competition with a known ligand. The IC50 is the midpoint of a concentration-inhibition curve.

Structures are written as SMILES. Like-named read-outs stand apart in the source and are kept apart here.

In test [1] the target is T1, fibrinogen receptor (glycoprotein IIb/IIIa) (Homo sapiens, UniProt P05106+P08514).
T1 construct: endogenous in cells
The test is described as follows: Inhibition of binding of 125I-fibrinogen to its receptor on intact, gel-filtered human platelets. As to conditions: inhibition of 125I-fibrinogen binding, stimulation with ADP (10 μM), read-out: Ki (μM), ADP-stimulated. The method, then: (§1) The compounds are tested in particular for their inhibitory action in blood platelet aggregation and the adhesion of fibrinogen to blood platelets. Gel-filtered blood platelets from human donor blood are used, which are activated with ADP or thrombin.
The inhibition of the binding of fibrinogen to its receptor (glycoprotein IIb/IIIa) by the compounds according to the invention is tested on intact, gel-filtered human platelets. The Ki value of the inhibition of binding of ^125 I-fibrinogen after stimulation with ADP (10 μM) is given. (References: J. S. Bennett and G. Vilaire, J. Clin. Invest. 64 (1979), 1393-1401; E. Kornecki et al., J. Biol. Chem. 256 (1981), 5695-5701; G. A. Marguerie et al., J. Biol. Chem. 254 (1979), 5357-5363; G. A. Marguerie et al., J. Biol. Chem. 255 (1980), 154-161).

Test [2] relates to gel-filtered human platelets. Put plainly: Inhibition of aggregation of gel-filtered human platelets after ADP or thrombin stimulation. The test is classed as cell-based. The protocol:
as §1
As a functional test, the inhibition of aggregation of gel-filtered human platelets by the compounds according to the invention is measured after ADP or thrombin stimulation. The IC50 value of the inhibition is given.

T1 sequence (P08514 32-887 limits assumed): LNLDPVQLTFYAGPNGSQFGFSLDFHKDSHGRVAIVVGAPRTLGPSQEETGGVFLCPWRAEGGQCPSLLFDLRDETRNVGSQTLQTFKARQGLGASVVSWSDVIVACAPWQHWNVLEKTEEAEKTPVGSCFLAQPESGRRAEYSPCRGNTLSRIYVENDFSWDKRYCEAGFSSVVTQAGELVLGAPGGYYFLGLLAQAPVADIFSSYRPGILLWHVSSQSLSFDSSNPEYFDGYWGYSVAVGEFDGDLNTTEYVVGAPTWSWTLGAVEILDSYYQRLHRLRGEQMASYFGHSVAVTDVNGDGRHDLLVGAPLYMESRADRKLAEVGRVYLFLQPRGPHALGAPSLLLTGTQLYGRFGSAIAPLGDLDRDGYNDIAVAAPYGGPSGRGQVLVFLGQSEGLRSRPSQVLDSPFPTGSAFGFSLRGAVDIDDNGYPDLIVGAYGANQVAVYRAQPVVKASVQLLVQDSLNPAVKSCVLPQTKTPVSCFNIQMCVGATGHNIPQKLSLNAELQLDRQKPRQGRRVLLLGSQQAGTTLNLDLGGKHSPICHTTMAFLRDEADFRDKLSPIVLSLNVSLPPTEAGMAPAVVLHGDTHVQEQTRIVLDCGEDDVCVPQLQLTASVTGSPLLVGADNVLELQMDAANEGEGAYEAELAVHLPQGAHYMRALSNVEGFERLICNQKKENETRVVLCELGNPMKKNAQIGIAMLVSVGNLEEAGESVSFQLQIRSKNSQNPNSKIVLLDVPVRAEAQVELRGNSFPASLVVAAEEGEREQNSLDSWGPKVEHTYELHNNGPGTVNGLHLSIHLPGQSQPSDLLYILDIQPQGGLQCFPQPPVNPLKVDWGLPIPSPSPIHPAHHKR
T1 sequence (P08514 891-1039 partner limits assumed): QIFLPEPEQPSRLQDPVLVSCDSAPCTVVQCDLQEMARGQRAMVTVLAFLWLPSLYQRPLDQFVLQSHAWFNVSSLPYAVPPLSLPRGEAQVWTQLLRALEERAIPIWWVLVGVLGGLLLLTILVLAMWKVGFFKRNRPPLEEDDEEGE
T1 sequence (P05106 27-788): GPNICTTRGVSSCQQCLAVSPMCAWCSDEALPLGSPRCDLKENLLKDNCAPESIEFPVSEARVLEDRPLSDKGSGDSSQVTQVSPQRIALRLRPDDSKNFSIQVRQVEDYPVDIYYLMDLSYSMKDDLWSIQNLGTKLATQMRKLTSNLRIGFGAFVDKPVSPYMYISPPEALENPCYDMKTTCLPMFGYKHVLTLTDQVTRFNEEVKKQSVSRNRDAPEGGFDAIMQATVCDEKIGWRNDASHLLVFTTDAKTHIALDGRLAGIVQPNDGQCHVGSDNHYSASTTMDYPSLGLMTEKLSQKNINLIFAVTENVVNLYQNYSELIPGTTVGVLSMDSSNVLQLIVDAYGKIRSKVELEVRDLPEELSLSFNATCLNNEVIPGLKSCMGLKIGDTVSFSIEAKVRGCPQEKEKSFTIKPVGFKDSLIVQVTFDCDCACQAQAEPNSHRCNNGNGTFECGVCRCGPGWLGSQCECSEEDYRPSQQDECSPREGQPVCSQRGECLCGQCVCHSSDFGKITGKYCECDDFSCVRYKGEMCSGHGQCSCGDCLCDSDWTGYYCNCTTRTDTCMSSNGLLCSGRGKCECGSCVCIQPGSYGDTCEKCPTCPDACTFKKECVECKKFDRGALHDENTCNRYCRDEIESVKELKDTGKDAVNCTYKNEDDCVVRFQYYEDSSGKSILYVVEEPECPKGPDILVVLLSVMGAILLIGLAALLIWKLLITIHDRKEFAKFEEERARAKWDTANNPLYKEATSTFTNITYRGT

As for `N=C(N)Nc1cccc(C2NC(=O)N(CC(=O)N[C@@H](CC(=O)O)C(=O)N[C@H](C(=O)O)c3ccccc3)C2=O)c1` (stereo partly drawn) [Example 2], the inhibition constant (Ki) in test [1] was 2 µM. Also, the half-maximal inhibitory concentration (IC50) is 6000 nM in test [2] (Platelet, inhibition of aggregation of gel-filtered human platelets, ADP stimulation, read-out: ADP-stimulated IC50) and 3000 nM in test [2] (Platelet; inhibition of aggregation of gel-filtered human platelets, thrombin stimulation; read-out: Thrombin-stimulated IC50 9 μM)).

With `N=C(N)Nc1ccc(C2NC(=O)N(CC(=O)N[C@@H](CC(=O)O)C(=O)N[C@H](C(=O)O)c3ccccc3)C2=O)cc1` (stereo partly drawn) [Example 1, (5-(4-Guanidinophenyl)-2,4-dioxoimidazolin-3-yl)acetyl-L-aspartyl-L-phenylglycine], in test [1], the Ki was determined as 0.03 µM. Further, the IC50 in test [2] (inhibition of aggregation of gel-filtered human platelets, ADP stimulation, read-out: ADP-stimulated IC50) was 200 nM; in test [2] (inhibition of aggregation of gel-filtered human platelets, thrombin stimulation; read-out: Thrombin-stimulated IC50 9 μM)) it was 70 nM.
